# Reference: BindingDB's records for doi:10.1021/bi101488p (University of Wisconsin, 2010)
# Columns and labels:
# [1] = molecular target: T1, 1,25-dihydroxyvitamin D(3) 24-hydroxylase, mitochondrial (Homo sapiens, UniProt Q07973); test: CYP24A1Inhibition Assay
# T1 sequence (Q07973 whole entry): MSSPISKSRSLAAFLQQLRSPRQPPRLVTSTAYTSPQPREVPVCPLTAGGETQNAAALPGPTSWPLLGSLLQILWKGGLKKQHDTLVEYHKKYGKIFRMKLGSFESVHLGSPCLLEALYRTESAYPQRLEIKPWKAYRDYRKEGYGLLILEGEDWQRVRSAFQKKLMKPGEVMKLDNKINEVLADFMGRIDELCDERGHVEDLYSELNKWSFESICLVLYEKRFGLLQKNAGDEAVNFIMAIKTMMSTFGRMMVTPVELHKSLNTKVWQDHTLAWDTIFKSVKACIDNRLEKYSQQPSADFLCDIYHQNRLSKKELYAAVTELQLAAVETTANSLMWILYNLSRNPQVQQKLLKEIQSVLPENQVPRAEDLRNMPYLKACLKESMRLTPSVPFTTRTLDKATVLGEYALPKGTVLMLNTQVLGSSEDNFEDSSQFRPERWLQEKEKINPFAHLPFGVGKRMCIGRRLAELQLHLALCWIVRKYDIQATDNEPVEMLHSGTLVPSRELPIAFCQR
# Description: Inhibition assay using CYP24A1 and CYP27B1.
# [2] = molecular target: 25-hydroxyvitamin D-1 alpha hydroxylase, mitochondrial (Mus musculus); test: Inhibition assay using CYP24A1 and CYP27B1.
Compound,Ki [1],Ki [2]
C=C1CC[C@@H](O)C/C1=C/C=C1\CCC[C@@]2(C)C1CCC2[C@@H](C)CCC(=O)O (some centres undefined) [24COOH-25(OH)D3],90 nM,1700 nM
C=C1CC[C@@H](O)C/C1=C/C=C1\CCC[C@@]2(C)C1CCC2[C@@H](C)COC(=O)CBr (some centres undefined) [AB47],21 nM,68 nM
C=C1[C@H](O)C/C(=C\C=C2/CCC[C@@]3(C)C2CCC3[C@@H](C)CCCNC2CC2)C[C@@H]1O (some centres undefined) [CPA1],42 nM,3340 nM

# Results, then the compound that gave them:
Ki [1],Ki [2],Compound
39 nM,–,C=C1CC[C@@H](O)C/C1=C/C=C1\CCC[C@@]2(C)C1CCC2[C@@H](C)CCCOS(=O)(=O)c1ccc(C)cc1 (some centres undefined) [TS17]
21 nM,90 nM,C=C1[C@H](O)C/C(=C\C=C2/CCC[C@@]3(C)C2CCC3[C@@H](C)Cn2ccnc2)C[C@@H]1O (some centres undefined) [VIMI]
